Source: US8101761B2, “(E)-N-{3-[1-(8-fluoro-11H-10-OXA-1-AZA-dibenzo [A,D] cyclohepten-5ylidene)-propyl]-phenyl}-methanesulfonamide as glucocorticoid receptor modulator for the treatment of rheumatoid arthritis” (Eli Lilly and Company, priority 2008, dated 2012)

Biological target: T1, human MR (mineralocorticoid receptor) (Homo sapiens, UniProt P08235)
T1 construct: expressed in transfected cells; host or cells: HEK293 (293-MR lysate)
T1 sequence (P08235 1-984): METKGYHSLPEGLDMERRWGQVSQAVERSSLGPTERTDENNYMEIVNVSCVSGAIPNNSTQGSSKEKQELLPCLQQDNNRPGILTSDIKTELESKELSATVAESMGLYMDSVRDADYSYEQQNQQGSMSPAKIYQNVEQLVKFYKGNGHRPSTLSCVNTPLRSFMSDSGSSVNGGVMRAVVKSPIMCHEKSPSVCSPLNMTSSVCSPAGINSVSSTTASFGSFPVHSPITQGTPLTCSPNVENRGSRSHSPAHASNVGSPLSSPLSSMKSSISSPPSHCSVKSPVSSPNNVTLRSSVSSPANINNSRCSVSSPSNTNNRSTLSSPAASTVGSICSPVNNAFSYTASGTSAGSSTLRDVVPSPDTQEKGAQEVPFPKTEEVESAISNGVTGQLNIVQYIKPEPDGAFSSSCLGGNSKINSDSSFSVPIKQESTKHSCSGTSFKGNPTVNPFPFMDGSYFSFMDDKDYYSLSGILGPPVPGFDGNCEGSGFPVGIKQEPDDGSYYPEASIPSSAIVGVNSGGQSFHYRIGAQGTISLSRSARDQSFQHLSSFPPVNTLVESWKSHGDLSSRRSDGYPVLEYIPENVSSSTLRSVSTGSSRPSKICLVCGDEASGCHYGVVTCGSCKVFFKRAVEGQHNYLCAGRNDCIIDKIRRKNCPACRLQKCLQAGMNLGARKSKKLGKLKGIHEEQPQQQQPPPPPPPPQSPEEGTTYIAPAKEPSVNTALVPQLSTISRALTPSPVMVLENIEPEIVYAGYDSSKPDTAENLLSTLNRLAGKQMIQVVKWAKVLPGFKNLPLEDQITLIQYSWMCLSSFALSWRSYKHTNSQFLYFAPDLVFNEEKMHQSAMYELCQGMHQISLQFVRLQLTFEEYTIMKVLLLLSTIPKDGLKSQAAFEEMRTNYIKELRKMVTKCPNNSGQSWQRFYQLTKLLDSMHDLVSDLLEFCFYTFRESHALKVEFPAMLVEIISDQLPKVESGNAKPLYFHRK
Experiment: Nuclear hormone receptor competition binding assay, MR
Settings: HEK293 lysate overexpressing human MR, [3H]-aldosterone; mean of n=7
Description: Cell lysates from human embryonic kidney HEK293 cells overexpressing human GR (glucocorticoid receptor), AR (androgen receptor), MR (mineralocorticoid receptor), or PR (progesterone receptor) are used for receptor-ligand competition binding assays to determine Ki values.
Briefly, steroid receptor competition binding assays are run in a buffer containing 20 mM Hepes buffer (pH=7.6), 0.2 mM EDTA, 75 mM NaCl, 1.5 mM MgCl2, 20% glycerol, 20 mM sodium molybdate, 0.2 mM DTT (dithiothreitol), 20 μg/ml aprotinin and 20 μg/ml leupeptin. Typically, steroid receptor binding assays include radio-labeled ligands, such as 0.3 nM [^3H]-dexamethasone for GR binding, 0.36 nM [^3H]-methyltrienolone for AR binding, 0.25 nM [^3H]-aldosterone for MR binding, and 0.29 nM [^3H]-methyltrienolone for PR binding, and either 20 μg 293-GR lysate, 22 μg 293-AR lysate, 20 μg 293-MR lysate or 40 μg 293-PR lysate per well. Assays are typically run in 96-well format. Competing test compounds are added at various concentrations ranging from about 0.01 nM to 10 μM. Non-specific binding is determined in the presence of 500 nM dexamethasone for GR binding, 500 nM aldosterone for MR binding, or 500 nM methyltrienolone for AR and PR binding. […] After an incubation of 2 hours, plates are read in a Wallac Microbeta counter. […]

Question: With `CC/C(=C1\c2ccc(F)cc2OCc2ncccc21)c1cccc(NS(C)(=O)=O)c1` [Compound (I), (E)-N-{3-[1-(8-Fluoro-11H-10-oxa-1-aza-dibenzo[a,d]cyclohepten-5-ylidene)-propyl]-phenyl}-methanesulfonamide] as the molecule, how does the Ki read?
Answer: The Ki was roughly 9.2 nM.
